Assay results taken from patent US20250387356A1 (SpringWorks Therapeutics, Inc., priority 2024, published 2025).

Key:
[1] = system: NF1-associated plexiform neurofibromas (PNs); test: Phase 2b trial of mirdametinib in adult and pediatric patients: confirmed objective response by BICR volumetric MRI per REiNS criteria; assay type: in vivo, human
Description: Study treatment was administered orally at a twice daily (BID) dose specified in the table below. Dosing was on a 28-day Cycle (4-week course) with a 3 week on/1 week off schedule. The treatment period will last for up to 24 Cycles followed by a 30-day Safety Follow-Up period.
A partial response was defined as PN decrease ≥20% compared to baseline using centrally read MRI volumetric analysis.
The major efficacy outcome measure was confirmed objective response rate (ORR), defined as the percentage of patients with complete response (disappearance of the target PN) or confirmed partial response ([…]). Responses were assessed by blinded independent central review (BICR) using volumetric magnetic resonance imaging (MRI) analysis per Response Evaluation in Neurofibromatosis and Schwannomatosis (REiNS) criteria. A secondary efficacy objective was to determine the duration of response for patients who achieved a confirmed objective response.

[2] = Mirdametinib pharmacokinetic parameters (Table A): exposure, absorption, food effect, distribution, elimination; assay type: in vivo; conditions: human, plasma, oral

O=C(NOC[C@H](O)CO)c1ccc(F)c(F)c1Nc1ccc(I)cc1F (single isomer, unassigned) [mirdametinib]
ORR, also considering patients who achieved a confirmed objective response after cycle 24 ([1]; adults): 45% | ORR, also considering patients who achieved a confirmed objective response after cycle 24 ([1]; pediatric patients): 54% | clearance ([2]; read-out: Apparent systemic clearance [Mean (% CV)] (converted)): 106 mL/min | Vd ([2]; read-out: Apparent volume of distribution [Mean (% CV)]): 255 L | half-life ([2]; read-out: Terminal elimination half-life [Mean (% CV)] (converted)): 28 h
